Laboratory results as given in ChEMBL document CHEMBL5724914, “Linking interpersonal differences in gut microbiota composition and drug biotransformation activity” (2024).

Assays:
[1] = (§1) The drug is tested on Z-030 corresponding to mouse gut metagenome with ENA study accession number: PRJEB37062 and ENA sample accession number: ERS12561829 for biotransformation under anaerobic condition. The drug concentrations were measured over 9 timepoints collected between 0 and 24 hours of incubation by liquid-chromatography-coupled mass spectrometry (LC–MS); conditions: 2 µM
[2] = as §1, with “Z-028” for “Z-030”, “ERS12561827” for “ERS12561829”; conditions: 2 µM
[3] = as §1, with “Z-026” for “Z-030”, “to” for “to mouse gut”, “ERS12561825” for “ERS12561829”; conditions: 2 µM
[4] = as §1, with “Z-023” for “Z-030”, “to” for “to mouse gut”, “ERS12561822” for “ERS12561829”; conditions: 2 µM
[5] = as §1, with “Z-021” for “Z-030”, “to” for “to mouse gut”, “ERS12561820” for “ERS12561829”; conditions: 2 µM
[6] = as §1, with “Z-019” for “Z-030”, “rat” for “mouse”, “ERS12561818” for “ERS12561829”; conditions: 2 µM
[7] = as §1, with “Z-009” for “Z-030”, “pig” for “mouse”, “ERS12561809” for “ERS12561829”; conditions: 2 µM
[8] = as §1, with “Z-008” for “Z-030”, “to” for “to mouse gut”, “ERS12561808” for “ERS12561829”; conditions: 2 µM
[9] = as §1, with “Z-002” for “Z-030”, “rabbit” for “mouse”, “ERS12561802” for “ERS12561829”; conditions: 2 µM
[10] = as §1, with “WLS-350” for “Z-030”, “human” for “mouse”, “ERS12561789” for “ERS12561829”; conditions: 2 µM
[11] = as §1, with “WLS-098” for “Z-030”, “human” for “mouse”, “ERS12561754” for “ERS12561829”; conditions: 2 µM
[12] = as §1, with “WLS-052” for “Z-030”, “human” for “mouse”, “ERS12561747” for “ERS12561829”; conditions: 2 µM
[13] = as §1, with “WLS-027” for “Z-030”, “human” for “mouse”, “ERS12561744” for “ERS12561829”; conditions: 2 µM
[14] = human gut metagenome, 24 h, 2 µM
[15] = human gut metagenome, 24 h, 2 µM; remark: listed apart in the source
[16] = human gut metagenome, 24 h, 2 µM; remark: listed apart in the source
[17] = human gut metagenome, 24 h, 2 µM; remark: listed apart in the source
[18] = human gut metagenome, 24 h, 2 µM; remark: listed apart in the source
[19] = human gut metagenome, 24 h, 2 µM; remark: listed apart in the source
[20] = human gut metagenome, 24 h, 2 µM; remark: listed apart in the source
Note: call rule not given here.

| SMILES | Bacterial Biotransformation [1] | Bacterial Biotransformation [2] | Bacterial Biotransformation [3] | Bacterial Biotransformation [4] | Bacterial Biotransformation [5] | Bacterial Biotransformation [6] | Bacterial Biotransformation [7] | Bacterial Biotransformation [8] | Bacterial Biotransformation [9] | Bacterial Biotransformation [10] | Bacterial Biotransformation [11] | Bacterial Biotransformation [12] | Bacterial Biotransformation [13] | Bacterial Biotransformation [14] | Bacterial Biotransformation [15] | Bacterial Biotransformation [16] | Bacterial Biotransformation [17] | Bacterial Biotransformation [18] | Bacterial Biotransformation [19] | Bacterial Biotransformation [20] |
| --- | --- | --- | --- | --- | --- | --- | --- | --- | --- | --- | --- | --- | --- | --- | --- | --- | --- | --- | --- | --- |
| CC(C)NCC(O)COc1ccc(COCCOC(C)C)cc1.CC(C)NCC(O)COc1ccc(COCCOC(C)C)cc1.O=C(O)/C=C/C(=O)O (stereo not given) [BISOPROLOL FUMARATE] | Compound NOT metabolized | Compound NOT metabolized | Compound NOT metabolized | Compound metabolized | Compound metabolized | Compound NOT metabolized | Compound metabolized | Compound NOT metabolized | Compound metabolized | Compound NOT metabolized | Compound metabolized | Compound NOT metabolized | Compound NOT metabolized | Compound NOT metabolized | Compound NOT metabolized | Compound NOT metabolized | Compound metabolized | Compound metabolized | Compound metabolized | Compound NOT metabolized |
| NC(CO)(CO)CO.O=C(c1ccccc1)c1ccc2n1CCC2C(=O)O (stereo not given) [KETOROLAC TROMETHAMINE] | Compound NOT metabolized | Compound NOT metabolized | Compound NOT metabolized | Compound metabolized | Compound metabolized | Compound NOT metabolized | Compound NOT metabolized | Compound NOT metabolized | Compound metabolized | Compound metabolized | Compound metabolized | Compound metabolized | Compound metabolized | Compound metabolized | Compound metabolized | Compound metabolized | Compound metabolized | Compound metabolized | Compound metabolized | Compound metabolized |
| COc1cc2c(c(OC)c1OC)-c1ccc(OC)c(=O)cc1[C@@H](NC(C)=O)CC2 [COLCHICINE] | Compound NOT metabolized | Compound NOT metabolized | Compound NOT metabolized | Compound metabolized | Compound NOT metabolized | Compound NOT metabolized | Compound metabolized | Compound NOT metabolized | Compound metabolized | Compound NOT metabolized | Compound NOT metabolized | Compound NOT metabolized | Compound NOT metabolized | Compound NOT metabolized | Compound NOT metabolized | Compound NOT metabolized | Compound metabolized | Compound metabolized | Compound metabolized | Compound metabolized |
| C=CCc1ccccc1OCC(O)CNC(C)C (stereo not given) [ALPRENOLOL] | Compound NOT metabolized | Compound NOT metabolized | Compound metabolized | Compound metabolized | Compound metabolized | Compound NOT metabolized | Compound NOT metabolized | Compound NOT metabolized | Compound metabolized | Compound NOT metabolized | Compound metabolized | Compound NOT metabolized | Compound NOT metabolized | Compound NOT metabolized | Compound metabolized | Compound NOT metabolized | Compound NOT metabolized | Compound metabolized | Compound metabolized | Compound NOT metabolized |
